Assay results from US11767310B2, “Nicotinamide RIPK1 inhibitors” (AbbVie Inc., priority 2021, dated 2023).
Where two headings read alike, the source gives them in different places.

Columns and labels:
Test in all cases: Kinase binding screen
Conditions in all cases: read-out: Percent Control at 100 nM Compound Concentration
[1] = target: ABL1(Q252H)-phosphorylated (Homo sapiens (Human), UniProt P00519, Q252H)
ALK(C1156Y) = ALK(C1156Y) (Homo sapiens (Human), UniProt Q9UM73, C1156Y)
AURKC = AURKC (Homo sapiens (Human), UniProt Q9UQB9)
BIKE = BIKE (Homo sapiens (Human), UniProt Q9NSY1)
CAMK2B = CAMK2B (Homo sapiens (Human), UniProt Q13554)
CAMK2G = CAMK2G (Homo sapiens (Human), UniProt Q13555)
CAMKK2 = CAMKK2 (Homo sapiens (Human), UniProt Q96RR4)
CDK3 = CDK3 (Homo sapiens (Human), UniProt Q00526)
CDK8 = CDK8 (Homo sapiens (Human), UniProt P49336)
EGFR(L861Q) = EGFR(L861Q) (Homo sapiens (Human), UniProt P00533, L861Q)
EPHA8 = EPHA8 (Homo sapiens (Human), UniProt P29322)
FLT3(D835V) = FLT3(D835V) (Homo sapiens (Human), UniProt P36888, D835V)
HIPK2 = HIPK2 (Homo sapiens (Human), UniProt Q9H2X6)
KIT(V559D,V654A) = KIT(V559D,V654A) (Homo sapiens (Human), UniProt P10721, V559D/V654A)
MAP3K4 = MAP3K4 (Homo sapiens (Human), UniProt Q9Y6R4)
MY03A = MY03A (Homo sapiens (Human), UniProt Q8NEV4)
NEK10 = NEK10 (Homo sapiens (Human), UniProt Q6ZWH5)
PAK6 = PAK6 (Homo sapiens (Human), UniProt Q9NQU5)
PIP5K2B = PIP5K2B (Homo sapiens (Human), UniProt P78356)
PLK4 = PLK4 (Homo sapiens (Human), UniProt O00444)
PRKD3 = PRKD3 (Homo sapiens (Human), UniProt O94806)
PRKR = PRKR (Homo sapiens (Human), UniProt P19525)
[2] = target: RPS6KA4(Kin.Dom.2-C-terminal) (Homo sapiens (Human), UniProt O75676)
[3] = target: RPS6KA5(Kin.Dom.2-C-terminal) (Homo sapiens (Human), UniProt O75582)
TGFBR1 = TGFBR1 (Homo sapiens (Human), UniProt P36897)
TNIK = TNIK (Homo sapiens (Human), UniProt Q9UKE5)
TXK = TXK (Homo sapiens (Human), UniProt P42681)
WEE1 = WEE1 (Homo sapiens (Human), UniProt P30291)

Sequence of EGFR(L861Q) (P00533 25-1210 L861Q): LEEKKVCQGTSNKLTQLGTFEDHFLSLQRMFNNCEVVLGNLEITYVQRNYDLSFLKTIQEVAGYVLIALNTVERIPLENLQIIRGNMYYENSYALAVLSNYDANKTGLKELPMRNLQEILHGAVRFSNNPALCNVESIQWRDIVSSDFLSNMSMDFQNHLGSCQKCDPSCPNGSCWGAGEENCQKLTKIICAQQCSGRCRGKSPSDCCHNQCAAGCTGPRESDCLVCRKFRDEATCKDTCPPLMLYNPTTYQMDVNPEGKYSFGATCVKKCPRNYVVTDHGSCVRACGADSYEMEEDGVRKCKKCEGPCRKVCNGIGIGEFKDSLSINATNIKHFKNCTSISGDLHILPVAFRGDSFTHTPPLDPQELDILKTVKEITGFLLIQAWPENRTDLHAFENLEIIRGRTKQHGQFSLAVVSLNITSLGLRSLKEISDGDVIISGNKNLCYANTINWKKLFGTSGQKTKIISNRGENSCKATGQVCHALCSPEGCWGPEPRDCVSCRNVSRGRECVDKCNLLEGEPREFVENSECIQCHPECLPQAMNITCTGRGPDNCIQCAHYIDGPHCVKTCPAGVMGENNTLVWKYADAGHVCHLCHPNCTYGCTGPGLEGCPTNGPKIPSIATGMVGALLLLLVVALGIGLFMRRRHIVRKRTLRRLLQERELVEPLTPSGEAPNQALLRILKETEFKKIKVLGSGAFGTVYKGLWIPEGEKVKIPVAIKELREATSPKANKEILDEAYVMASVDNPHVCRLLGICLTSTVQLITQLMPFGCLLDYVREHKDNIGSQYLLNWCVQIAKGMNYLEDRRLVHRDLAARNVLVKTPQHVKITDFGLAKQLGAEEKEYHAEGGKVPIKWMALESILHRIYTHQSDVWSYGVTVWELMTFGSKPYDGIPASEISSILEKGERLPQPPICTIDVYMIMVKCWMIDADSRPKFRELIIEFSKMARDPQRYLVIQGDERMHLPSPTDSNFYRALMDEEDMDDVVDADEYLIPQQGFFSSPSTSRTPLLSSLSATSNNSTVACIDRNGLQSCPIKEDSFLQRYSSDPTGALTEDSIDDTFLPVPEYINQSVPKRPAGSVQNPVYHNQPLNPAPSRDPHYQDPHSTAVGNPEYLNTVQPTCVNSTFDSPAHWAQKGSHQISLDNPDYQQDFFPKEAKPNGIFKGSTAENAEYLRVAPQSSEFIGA
Sequence of CDK3 (Q00526 whole entry): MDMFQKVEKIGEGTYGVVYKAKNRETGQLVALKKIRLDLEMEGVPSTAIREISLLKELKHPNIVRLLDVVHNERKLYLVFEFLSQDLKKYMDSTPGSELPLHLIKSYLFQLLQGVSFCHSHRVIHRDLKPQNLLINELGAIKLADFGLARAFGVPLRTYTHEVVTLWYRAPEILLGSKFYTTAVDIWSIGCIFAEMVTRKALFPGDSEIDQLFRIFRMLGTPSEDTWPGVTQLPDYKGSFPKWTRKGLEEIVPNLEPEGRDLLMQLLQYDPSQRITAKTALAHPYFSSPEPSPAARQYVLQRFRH
Sequence of HIPK2 (Q9H2X6 whole entry): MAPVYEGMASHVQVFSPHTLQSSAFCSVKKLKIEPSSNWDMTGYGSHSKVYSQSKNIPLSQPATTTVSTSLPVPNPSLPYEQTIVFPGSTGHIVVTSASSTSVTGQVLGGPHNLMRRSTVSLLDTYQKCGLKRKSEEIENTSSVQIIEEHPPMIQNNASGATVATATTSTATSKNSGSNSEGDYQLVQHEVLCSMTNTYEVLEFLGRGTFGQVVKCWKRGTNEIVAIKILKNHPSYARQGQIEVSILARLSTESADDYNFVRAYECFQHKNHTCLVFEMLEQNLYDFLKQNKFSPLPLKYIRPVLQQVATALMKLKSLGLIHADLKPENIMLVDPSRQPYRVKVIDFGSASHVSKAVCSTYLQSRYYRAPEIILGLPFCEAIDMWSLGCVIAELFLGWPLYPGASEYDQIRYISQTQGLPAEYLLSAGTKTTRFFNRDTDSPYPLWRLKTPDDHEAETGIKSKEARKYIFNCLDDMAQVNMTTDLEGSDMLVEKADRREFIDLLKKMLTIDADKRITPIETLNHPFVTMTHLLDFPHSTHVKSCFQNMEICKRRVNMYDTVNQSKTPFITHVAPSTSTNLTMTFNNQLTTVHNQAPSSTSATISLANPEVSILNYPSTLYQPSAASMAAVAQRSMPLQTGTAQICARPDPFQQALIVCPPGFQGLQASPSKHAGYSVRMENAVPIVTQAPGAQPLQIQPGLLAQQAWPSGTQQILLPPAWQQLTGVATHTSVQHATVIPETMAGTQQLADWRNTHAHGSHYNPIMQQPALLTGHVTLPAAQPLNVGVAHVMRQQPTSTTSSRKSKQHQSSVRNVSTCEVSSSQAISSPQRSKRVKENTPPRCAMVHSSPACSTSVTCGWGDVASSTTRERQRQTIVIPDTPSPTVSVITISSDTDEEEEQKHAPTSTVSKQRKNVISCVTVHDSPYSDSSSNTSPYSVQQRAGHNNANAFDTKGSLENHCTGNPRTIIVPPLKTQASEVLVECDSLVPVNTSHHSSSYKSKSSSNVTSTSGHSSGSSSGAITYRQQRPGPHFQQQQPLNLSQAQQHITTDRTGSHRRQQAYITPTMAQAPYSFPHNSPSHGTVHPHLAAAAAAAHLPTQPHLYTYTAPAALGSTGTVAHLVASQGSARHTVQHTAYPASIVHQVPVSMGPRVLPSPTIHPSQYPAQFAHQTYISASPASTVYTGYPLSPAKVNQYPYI
Sequence of PAK6 (Q9NQU5 whole entry): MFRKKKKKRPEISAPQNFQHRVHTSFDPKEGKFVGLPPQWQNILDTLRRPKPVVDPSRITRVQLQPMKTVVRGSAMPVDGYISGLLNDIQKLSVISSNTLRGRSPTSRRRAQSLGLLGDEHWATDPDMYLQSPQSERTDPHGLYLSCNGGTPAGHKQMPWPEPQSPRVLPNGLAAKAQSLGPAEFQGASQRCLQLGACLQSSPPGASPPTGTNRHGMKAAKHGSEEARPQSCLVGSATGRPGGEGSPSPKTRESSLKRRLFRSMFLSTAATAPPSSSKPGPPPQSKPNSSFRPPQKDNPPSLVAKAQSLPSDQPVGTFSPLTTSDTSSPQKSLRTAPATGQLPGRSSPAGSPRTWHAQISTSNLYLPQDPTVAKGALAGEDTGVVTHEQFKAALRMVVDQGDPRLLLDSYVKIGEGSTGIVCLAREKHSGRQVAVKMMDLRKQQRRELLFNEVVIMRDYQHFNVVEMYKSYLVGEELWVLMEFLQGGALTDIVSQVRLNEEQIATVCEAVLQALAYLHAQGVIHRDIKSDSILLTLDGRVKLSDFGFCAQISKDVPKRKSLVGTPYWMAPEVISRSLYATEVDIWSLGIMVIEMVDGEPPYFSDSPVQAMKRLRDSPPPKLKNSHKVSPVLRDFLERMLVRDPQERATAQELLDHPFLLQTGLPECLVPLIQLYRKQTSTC
Sequence of NEK10 (Q6ZWH5 whole entry): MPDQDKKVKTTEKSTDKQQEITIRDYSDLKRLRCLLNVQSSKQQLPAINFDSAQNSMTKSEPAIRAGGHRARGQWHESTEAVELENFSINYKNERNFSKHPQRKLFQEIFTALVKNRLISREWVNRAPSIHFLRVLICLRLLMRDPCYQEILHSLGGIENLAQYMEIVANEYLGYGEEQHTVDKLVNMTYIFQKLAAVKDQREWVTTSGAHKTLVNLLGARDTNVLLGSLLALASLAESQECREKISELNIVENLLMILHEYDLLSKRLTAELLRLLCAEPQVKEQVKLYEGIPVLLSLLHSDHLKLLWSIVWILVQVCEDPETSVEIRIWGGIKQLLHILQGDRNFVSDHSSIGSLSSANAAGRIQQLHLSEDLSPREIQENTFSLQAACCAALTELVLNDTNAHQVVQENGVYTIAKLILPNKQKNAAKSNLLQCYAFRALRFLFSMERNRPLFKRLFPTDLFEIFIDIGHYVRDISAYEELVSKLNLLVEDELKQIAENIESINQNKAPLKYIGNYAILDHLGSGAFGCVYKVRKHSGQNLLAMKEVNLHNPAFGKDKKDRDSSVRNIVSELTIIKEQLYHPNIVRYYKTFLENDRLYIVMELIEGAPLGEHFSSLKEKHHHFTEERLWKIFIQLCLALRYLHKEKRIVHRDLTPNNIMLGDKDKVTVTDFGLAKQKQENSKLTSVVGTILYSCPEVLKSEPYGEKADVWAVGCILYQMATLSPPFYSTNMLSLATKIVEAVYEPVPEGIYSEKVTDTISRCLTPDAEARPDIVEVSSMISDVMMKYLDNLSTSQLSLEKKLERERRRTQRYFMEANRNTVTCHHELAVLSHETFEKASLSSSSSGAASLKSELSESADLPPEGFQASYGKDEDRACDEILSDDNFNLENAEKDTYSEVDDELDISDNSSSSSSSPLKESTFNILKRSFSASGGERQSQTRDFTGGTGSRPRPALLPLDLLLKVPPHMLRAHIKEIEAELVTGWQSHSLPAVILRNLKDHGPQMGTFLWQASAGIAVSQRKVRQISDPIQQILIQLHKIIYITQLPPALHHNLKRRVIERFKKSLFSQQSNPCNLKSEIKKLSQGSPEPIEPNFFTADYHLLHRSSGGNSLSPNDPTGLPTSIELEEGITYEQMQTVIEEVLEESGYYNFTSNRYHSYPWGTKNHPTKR
Sequence of PIP5K2B (P78356 whole entry): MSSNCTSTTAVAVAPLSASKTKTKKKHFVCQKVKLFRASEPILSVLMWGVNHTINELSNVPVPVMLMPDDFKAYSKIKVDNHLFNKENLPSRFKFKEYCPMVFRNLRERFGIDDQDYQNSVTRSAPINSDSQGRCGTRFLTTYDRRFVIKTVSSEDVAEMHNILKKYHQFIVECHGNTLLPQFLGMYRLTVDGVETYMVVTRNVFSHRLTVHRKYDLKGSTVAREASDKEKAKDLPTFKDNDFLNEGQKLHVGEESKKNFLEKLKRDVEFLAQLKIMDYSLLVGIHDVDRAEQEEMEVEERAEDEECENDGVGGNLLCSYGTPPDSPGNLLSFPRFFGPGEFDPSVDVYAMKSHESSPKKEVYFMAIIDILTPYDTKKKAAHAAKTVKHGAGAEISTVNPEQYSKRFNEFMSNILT

## CN(C[C@@H](O)Cc1ccccc1)C(=O)c1cncc(C#Cc2cnn(C(F)F)c2)c1 [Example 2, (S)-5-((1-(difluoromethyl)-1H-pyrazol-4-yl)ethynyl)-N-(2-hydroxy-3-phenylpropyl)-N-methylnicotinamide]
[1]; ABL1(Q252H)-phosphorylated
  remaining activity at 0.1 µM: 99%
ALK(C1156Y); ALK(C1156Y)
  remaining activity at 0.1 µM: 100%
AURKC; AURKC
  remaining activity at 0.1 µM: 100%
BIKE; BIKE
  remaining activity at 0.1 µM: 100%
CAMK2B; CAMK2B
  remaining activity at 0.1 µM: 100%
CAMK2G; CAMK2G
  remaining activity at 0.1 µM: 94%
CAMKK2; CAMKK2
  remaining activity at 0.1 µM: 99%
CDK3; CDK3
  remaining activity at 0.1 µM: 100%
CDK8; CDK8
  remaining activity at 0.1 µM: 10%
EGFR(L861Q); EGFR(L861Q)
  remaining activity at 0.1 µM: 100%
EPHA8; EPHA8
  remaining activity at 0.1 µM: 99%
FLT3(D835V); FLT3(D835V)
  remaining activity at 0.1 µM: 100%
HIPK2; HIPK2
  remaining activity at 0.1 µM: 99%
KIT(V559D,V654A); KIT(V559D,V654A)
  remaining activity at 0.1 µM: 94%
MAP3K4; MAP3K4
  remaining activity at 0.1 µM: 100%
MY03A; MY03A
  remaining activity at 0.1 µM: 99%
NEK10; NEK10
  remaining activity at 0.1 µM: 91%
PAK6; PAK6
  remaining activity at 0.1 µM: 85%
PIP5K2B; PIP5K2B
  remaining activity at 0.1 µM: 100%
PLK4; PLK4
  remaining activity at 0.1 µM: 100%
PRKD3; PRKD3
  remaining activity at 0.1 µM: 100%
PRKR; PRKR
  remaining activity at 0.1 µM: 100%
[2]; RPS6KA4(Kin.Dom.2-C-terminal)
  remaining activity at 0.1 µM: 97%
[3]; RPS6KA5(Kin.Dom.2-C-terminal)
  remaining activity at 0.1 µM: 95%
TGFBR1; TGFBR1
  remaining activity at 0.1 µM: 100%
TNIK; TNIK
  remaining activity at 0.1 µM: 100%
TXK; TXK
  remaining activity at 0.1 µM: 100%
WEE1; WEE1
  remaining activity at 0.1 µM: 92%

## CN(C[C@H](Cc1ccccc1)OP(=O)(O)O)C(=O)c1cncc(C#Cc2cnn(C(F)F)c2)c1 [Example 19, (S)-1-(5-((1-(difluoromethyl)-1H-pyrazol-4-yl)ethynyl)-N-methylnicotinamido)-3-phenylpropan-2-yl dihydrogen phosphate]
[1]
  remaining activity at 0.1 µM: 99%
ALK(C1156Y)
  remaining activity at 0.1 µM: 100%
AURKC
  remaining activity at 0.1 µM: 100%
BIKE
  remaining activity at 0.1 µM: 100%
CAMK2B
  remaining activity at 0.1 µM: 92%
CAMK2G
  remaining activity at 0.1 µM: 100%
CAMKK2
  remaining activity at 0.1 µM: 100%
CDK3
  remaining activity at 0.1 µM: 100%
CDK8
  remaining activity at 0.1 µM: 98%
EGFR(L861Q)
  remaining activity at 0.1 µM: 86%
EPHA8
  remaining activity at 0.1 µM: 100%
FLT3(D835V)
  remaining activity at 0.1 µM: 100%
HIPK2
  remaining activity at 0.1 µM: 79%
KIT(V559D,V654A)
  remaining activity at 0.1 µM: 100%
MAP3K4
  remaining activity at 0.1 µM: 100%
MY03A
  remaining activity at 0.1 µM: 93%
NEK10
  remaining activity at 0.1 µM: 100%
PAK6
  remaining activity at 0.1 µM: 80%
PIP5K2B
  remaining activity at 0.1 µM: 95%
PLK4
  remaining activity at 0.1 µM: 100%
PRKD3
  remaining activity at 0.1 µM: 100%
PRKR
  remaining activity at 0.1 µM: 97%
[2]
  remaining activity at 0.1 µM: 100%
[3]
  remaining activity at 0.1 µM: 90%
TGFBR1
  remaining activity at 0.1 µM: 100%
TNIK
  remaining activity at 0.1 µM: 100%
TXK
  remaining activity at 0.1 µM: 100%
WEE1
  remaining activity at 0.1 µM: 100%
